This is an account of results in ChEMBL document CHEMBL5620415, “Design, synthesis and anti-hepatic fibrosis activity of novel diphenyl vitamin D receptor agonists” (Eur J Med Chem, 2023).

Usually IC50 stands for the concentration at which inhibition is half-maximal. A higher IC50 goes with weaker potency.

Series [1] concerns the target T1, Vitamin D3 receptor (Homo sapiens) (UniProt P11473).
T1 sequence (whole entry): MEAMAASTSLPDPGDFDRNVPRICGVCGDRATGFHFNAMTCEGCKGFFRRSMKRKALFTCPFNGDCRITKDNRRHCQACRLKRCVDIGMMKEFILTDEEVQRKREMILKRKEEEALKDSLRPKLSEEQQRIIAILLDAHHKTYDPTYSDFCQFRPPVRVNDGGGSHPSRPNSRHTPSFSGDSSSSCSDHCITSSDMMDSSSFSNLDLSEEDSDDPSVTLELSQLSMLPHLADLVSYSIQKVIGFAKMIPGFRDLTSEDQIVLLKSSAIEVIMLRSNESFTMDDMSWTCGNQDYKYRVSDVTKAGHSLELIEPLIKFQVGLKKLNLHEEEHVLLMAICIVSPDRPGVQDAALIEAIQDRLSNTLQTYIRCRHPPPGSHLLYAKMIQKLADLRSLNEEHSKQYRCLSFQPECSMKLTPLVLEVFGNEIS
Put plainly: Binding affinity to human full-length Vitamin D receptor assessed as relative binding affinity at 1 uM incubated for 2 hrs by fluorescence polarization based competitive binding assay relative to calcipotriol. (In general: Fluorescence polarisation rises when a labelled molecule tumbles more slowly, as on binding a larger partner.)

Series [2] in a line: Cytotoxicity against human LX-2 cells by CCK-8 assay. The format is toxicity, cell-based. On the technique in general: Tetrazolium assays rely on reduction of a dye to a coloured formazan, in cell work by metabolically active cells.
The target of series [3] is T1, Vitamin D3 receptor (Homo sapiens). Put plainly: Agonist activity at Vitamin D receptor in human LX-2 cells assessed as transcriptional activity by measuring induction of CYP24A expression at 0.5 uM by RT-qPCR analysis relative to control. In kind it is cell-based.

Activity calls are given as the source filed them. The calls are words filed in the database; no cut-off is given here.

For `O=C(O)CCCOc1cccc(COc2ccc(CO)c(CO)c2)c1`, in series [1], the RBA turned out to be 9.25%. Further, the IC50 in series [2] is over 30 µM.
For the molecule `C=CCC(O)(CC=C)CCCOc1cccc(CCc2ccc(CO)c(CO)c2)c1`, the RBA in series [1] was 35.3%. For the same molecule, the IC50 in series [2] is over 30 µM. Moreover, in series [3], the outcome was inactive.
As for `CC(C)(O)CCCOc1cccc(/C=C/c2ccc(CO)c(CO)c2)c1`, in series [1] (filed as agonist), the RBA stood at 44.5%. Also, the IC50 in series [2] is over 30 µM.
On to `OCc1ccc(/C=C/c2cccc(OCCCN3CCOCC3)c2)cc1CO`, for which, in series [1], the RBA was determined as 34.1%. The molecule further had a 50% inhibitory concentration (IC50) in series [2] of over 30 µM.
For `O=C(CCCOc1cccc(COc2ccc(CO)c(CO)c2)c1)N1CCCCC1`, in that order: 24.9% and over 30 µM.
For the molecule `CCN(CC)CCCOc1cccc(COc2ccc(CO)c(CO)c2)c1`, the RBA in series [1] (filed as agonist) was found to be 49.7%. In series [2], this molecule gave a half-maximal inhibitory concentration (IC50) of over 30 µM.
As for `COC(=O)CCCOc1cccc(/C=C/c2ccc(CO)c(CO)c2)c1`, the RBA in series [1] was 34.1%. Also, the concentration for half-maximal inhibition (IC50) in series [2] was over 30 µM.
As for `C=CCC(O)(CC=C)CCCCOc1ccc(CCc2ccc(CO)c(CO)c2)cc1`, in series [1], the RBA was found to be 16.2%. For the same molecule, in series [2], the IC50 was over 30 µM. Besides, the outcome in series [3] was inactive.
For `OCCCCOc1cccc(CCc2ccc(CO)c(CO)c2)c1`, the RBA in series [1] turned out to be 32.4%. For the same molecule, the IC50 in series [2] was over 30 µM. Besides, the result in series [3] was inactive.
For `OCCCCOc1cccc(COc2ccc(CO)c(CO)c2)c1`, the RBA in series [1] (filed as agonist) is 41.6%. Moreover, the IC50 in series [2] was over 30 µM.
`OCCCCCOc1ccc(/C=C/c2ccc(CO)c(CO)c2)cc1`: the RBA in series [1] amounted to 36.4%. For the same molecule, the 50% inhibitory concentration (IC50) in series [2] was over 30 µM.
In the same order, the values of `CCC(O)(CC)CCCCOc1cccc(/C=C/c2ccc(CO)c(CO)c2)c1` are 23.1% and over 30 µM.
In the same order, the values of `CC(C)(O)CCCCCOc1cccc(COc2ccc(CO)c(CO)c2)c1` are 27.2% and over 30 µM.
`CC(C)(O)CCCCOc1ccc(CCc2ccc(CO)c(CO)c2)cc1`: the RBA in series [1] came out at 11.6%. The same molecule displayed an IC50 in series [2] of over 30 µM. Further, the result in series [3] was inactive.
In the case of `CC(C)(O)CCCOc1cccc(COc2ccc(CO)c(CO)c2)c1`, the RBA in series [1] was found to be 27.2%. Moreover, the concentration for half-maximal inhibition (IC50) in series [2] is over 30 µM.
In the same order, the values of `OCc1ccc(/C=C/c2ccc(OCCCN3CCOCC3)cc2)cc1CO` are 32.4% and over 30 µM.
For `OCc1ccc(/C=C/c2cccc(OCCCC(F)(F)F)c2)cc1CO`, the RBA in series [1] was 30.1%. Besides, the IC50 in series [2] was over 30 µM. Besides, the result in series [3] (filed as agonist) was Active.
For `OCCCCCCOc1cccc(COc2ccc(CO)c(CO)c2)c1`, in series [1], the RBA was determined as 9.25%. The half-inhibitory concentration (IC50) in series [2] is over 30 µM.
With `CCC(O)(CC)CCCCCOc1cccc(COc2ccc(CO)c(CO)c2)c1`, in series [1], the RBA stood at 3.47%. This molecule also showed an IC50 in series [2] of over 30 µM.
With `CCCCC(Oc1ccc(CO)c(CO)c1)c1cccc(OCCCC(O)(CC)CC)c1` (stereo not drawn), the RBA in series [1] (filed as agonist) is 42.2%. In series [2], this molecule returned a 50% inhibitory concentration (IC50) of over 30 µM.
In the case of `OCCCCCOc1ccc(CCc2ccc(CO)c(CO)c2)cc1`, the RBA in series [1] (filed as agonist) came out at 46.2%. The IC50 in series [2] is over 30 µM. For the same molecule, the outcome in series [3] was inactive.
Regarding `CCC(O)(CC)CCCCOc1cccc(COc2ccc(CO)c(CO)c2)c1`, in series [1], the RBA is 35.8%. For the same molecule, in series [2], the IC50 is over 30 µM.
For the molecule `CC(C)(O)CCCOc1cccc(CCc2ccc(CO)c(CO)c2)c1`, the RBA in series [1] came to 14.4%. Also, the half-maximal inhibitory concentration (IC50) in series [2] was over 30 µM. Further, in series [3], the outcome was inactive.
For the molecule `OCCCCCOc1cccc(/C=C/c2ccc(CO)c(CO)c2)c1`, the RBA in series [1] was 5.78%. The same molecule had an IC50 in series [2] of over 30 µM.
For `CCC(O)(CC)CCOc1cccc(/C=C/c2ccc(CO)c(CO)c2)c1`, in that order: 38.1% and over 30 µM.
For `CCC(O)(CC)CCCOc1cccc(C(Oc2ccc(CO)c(CO)c2)C(C)C)c1` (stereo not drawn), in that order: 36.4% and over 30 µM.
With `CCC(O)(CC)CCCOc1cccc(C(C)Oc2ccc(CO)c(CO)c2)c1` (stereo not drawn), the RBA in series [1] (filed as agonist) came to 45.1%. The same molecule registered a half-inhibitory concentration (IC50) in series [2] of over 30 µM.
In the same order, the values of `COC(=O)CCCCOc1cccc(COc2ccc(CO)c(CO)c2)c1` are 45.7% and over 30 µM.
In the case of `CCC(O)(CC)CCCOc1cccc(CCc2ccc(CO)c(CO)c2)c1`, the RBA in series [1] amounted to 28.3%. The molecule further yielded a 50% inhibitory concentration (IC50) in series [2] of over 30 µM. In addition, the result in series [3] was inactive.
`C=CCC(O)(CC=C)CCCOc1cccc(/C=C/c2ccc(CO)c(CO)c2)c1`: in series [1] (filed as agonist), the RBA is 40.5%. Further, in series [2], the IC50 is over 30 µM.
In the same order, the values of `CCN(CC)CCCOc1ccc(/C=C/c2ccc(CO)c(CO)c2)cc1` are 49.7% and over 30 µM.
In the case of `OCCCCOc1cccc(/C=C/c2ccc(CO)c(CO)c2)c1`, the RBA in series [1] is 11.6%. The molecule also showed a concentration for half-maximal inhibition (IC50) in series [2] of over 30 µM.
In the same order, the values of `COC(=O)CCCCCOc1cccc(COc2ccc(CO)c(CO)c2)c1` are 29.5% and over 30 µM.
For `OCCCCCOc1cccc(COc2ccc(CO)c(CO)c2)c1`, in that order: 9.83% and over 30 µM.
For the molecule `C=CCC(O)(CC=C)CCCCCOc1cccc(COc2ccc(CO)c(CO)c2)c1`, the RBA in series [1] (filed as agonist) came to 46.2%. This molecule also had an IC50 in series [2] of over 30 µM. Besides, in series [3] (filed as agonist), the outcome was Active.
Consider `C=CCC(O)(CC=C)CCCOc1cccc(COc2ccc(CO)c(CO)c2)c1`, for which the RBA in series [1] was determined as 20.2%. The molecule further came in with a half-inhibitory concentration (IC50) in series [2] of over 30 µM.
With `CCCC(Oc1ccc(CO)c(CO)c1)c1cccc(OCCCC(O)(CC)CC)c1` (stereo not drawn), in series [1] (filed as agonist), the RBA is 46.2%. For the same molecule, the IC50 in series [2] was over 30 µM.
As for `CN1CCN(CCCOc2ccc(/C=C/c3ccc(CO)c(CO)c3)cc2)CC1`, in series [1], the RBA was determined as 21.4%. The same molecule had a 50% inhibitory concentration (IC50) in series [2] of over 30 µM.
`CCN(CC)CCCOc1cccc(/C=C/c2ccc(CO)c(CO)c2)c1`: the RBA in series [1] (filed as agonist) was 42.2%. In addition, the IC50 in series [2] was over 30 µM.
For `CC(O)CCCOc1cccc(/C=C/c2ccc(CO)c(CO)c2)c1` (stereo not drawn), the RBA in series [1] turned out to be 8.67%. Besides, the IC50 in series [2] is over 30 µM.
As for `CC(C)(O)CCCCOc1cccc(COc2ccc(CO)c(CO)c2)c1`, the RBA in series [1] turned out to be 9.25%. In series [2], this molecule had a concentration for half-maximal inhibition (IC50) of over 30 µM.
In the same order, the values of `O=C(O)CCCOc1cccc(/C=C/c2ccc(CO)c(CO)c2)c1` are 37% and over 30 µM.
With `CCC(O)(CC)CCCOc1cccc(COc2ccc(CO)c(CO)c2)c1`, the RBA in series [1] (filed as agonist) was found to be 43.4%. The same molecule showed a half-inhibitory concentration (IC50) in series [2] of over 30 µM. In addition, in series [3] (filed as agonist), the result was Active.
For `O=C(CCCOc1cccc(COc2ccc(CO)c(CO)c2)c1)N1CCOCC1`, the RBA in series [1] is 17.9%. In addition, in series [2], the IC50 was over 30 µM.
In the same order, the values of `OCc1ccc(/C=C/c2cccc(OCCCC(O)(c3ccccc3)c3ccccc3)c2)cc1CO` are 23.7% and over 30 µM.
For `CCN(CC)C(=O)CCCOc1cccc(COc2ccc(CO)c(CO)c2)c1`, in that order: 8.67% and over 30 µM.
For the molecule `CCC(O)(CC)CCCCOc1ccc(CCc2ccc(CO)c(CO)c2)cc1`, the RBA in series [1] (filed as agonist) was 44.5%. The IC50 in series [2] was over 30 µM. Besides, in series [3], the outcome was inactive.
As for `COC(=O)CCCOc1cccc(COc2ccc(CO)c(CO)c2)c1`, the RBA in series [1] amounted to 19.6%. This molecule also gave a half-maximal inhibitory concentration (IC50) in series [2] of over 30 µM.
As to `CCC(O)(CC)CCCCOc1ccc(/C=C/c2ccc(CO)c(CO)c2)cc1`, the RBA in series [1] amounted to 31.2%. The 50% inhibitory concentration (IC50) in series [2] was over 30 µM.
In the same order, the values of `CN1CCN(C(=O)CCCOc2cccc(COc3ccc(CO)c(CO)c3)c2)CC1` are 30.1% and over 30 µM.
For `CCC(O)(CC)CCCCCOc1cccc(/C=C/c2ccc(CO)c(CO)c2)c1`, in that order: 33.5% and over 30 µM.
